How the values were obtained:
ΔF508-CFTR [1] = biological target: T1, ΔF508-CFTR (Homo sapiens, UniProt P13569, DEL508-508); test: CFTR cell surface levels using HRP-tagged ΔF508-CFTR expressing CFBE cells, in the presence of a co-corrector; assay type: cell-based; conditions: HRP-tagged ΔF508-CFTR CFBE cells, in the presence of 3 μM co-corrector; for EC50: read-out: EC50
T1 construct: host or cells: CFBE41o-, doxycycline-inducible
In short: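 Chemiluminescent read-out of surface HRP (15 min, dark) after PBS washes. Activity is normalized as 100×(sample−DMSO)/(3 μM co-corrector alone−DMSO).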

ΔF508-CFTR [2] = biological target: T1, ΔF508-CFTR; test: CFTR cell surface levels using HRP-tagged ΔF508-CFTR expressing CFBE cells, intrinsic corrector capacity; assay type: cell-based; design: % Activation: concentration or dose not given beside the values; conditions: HRP-tagged ΔF508-CFTR expressing CFBE41o- cells, compound alone (intrinsic corrector capacity), 20 hours at 33° C.; for EC50: read-out: EC50
In short: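 Surface ΔF508-CFTR was measured as HRP chemiluminescence from an extracellular-loop-4 tag, expressed as percent activity between DMSO and a […] corrector control.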

T1 sequence (P13569 with tags, fused parts or gaps DEL508-508): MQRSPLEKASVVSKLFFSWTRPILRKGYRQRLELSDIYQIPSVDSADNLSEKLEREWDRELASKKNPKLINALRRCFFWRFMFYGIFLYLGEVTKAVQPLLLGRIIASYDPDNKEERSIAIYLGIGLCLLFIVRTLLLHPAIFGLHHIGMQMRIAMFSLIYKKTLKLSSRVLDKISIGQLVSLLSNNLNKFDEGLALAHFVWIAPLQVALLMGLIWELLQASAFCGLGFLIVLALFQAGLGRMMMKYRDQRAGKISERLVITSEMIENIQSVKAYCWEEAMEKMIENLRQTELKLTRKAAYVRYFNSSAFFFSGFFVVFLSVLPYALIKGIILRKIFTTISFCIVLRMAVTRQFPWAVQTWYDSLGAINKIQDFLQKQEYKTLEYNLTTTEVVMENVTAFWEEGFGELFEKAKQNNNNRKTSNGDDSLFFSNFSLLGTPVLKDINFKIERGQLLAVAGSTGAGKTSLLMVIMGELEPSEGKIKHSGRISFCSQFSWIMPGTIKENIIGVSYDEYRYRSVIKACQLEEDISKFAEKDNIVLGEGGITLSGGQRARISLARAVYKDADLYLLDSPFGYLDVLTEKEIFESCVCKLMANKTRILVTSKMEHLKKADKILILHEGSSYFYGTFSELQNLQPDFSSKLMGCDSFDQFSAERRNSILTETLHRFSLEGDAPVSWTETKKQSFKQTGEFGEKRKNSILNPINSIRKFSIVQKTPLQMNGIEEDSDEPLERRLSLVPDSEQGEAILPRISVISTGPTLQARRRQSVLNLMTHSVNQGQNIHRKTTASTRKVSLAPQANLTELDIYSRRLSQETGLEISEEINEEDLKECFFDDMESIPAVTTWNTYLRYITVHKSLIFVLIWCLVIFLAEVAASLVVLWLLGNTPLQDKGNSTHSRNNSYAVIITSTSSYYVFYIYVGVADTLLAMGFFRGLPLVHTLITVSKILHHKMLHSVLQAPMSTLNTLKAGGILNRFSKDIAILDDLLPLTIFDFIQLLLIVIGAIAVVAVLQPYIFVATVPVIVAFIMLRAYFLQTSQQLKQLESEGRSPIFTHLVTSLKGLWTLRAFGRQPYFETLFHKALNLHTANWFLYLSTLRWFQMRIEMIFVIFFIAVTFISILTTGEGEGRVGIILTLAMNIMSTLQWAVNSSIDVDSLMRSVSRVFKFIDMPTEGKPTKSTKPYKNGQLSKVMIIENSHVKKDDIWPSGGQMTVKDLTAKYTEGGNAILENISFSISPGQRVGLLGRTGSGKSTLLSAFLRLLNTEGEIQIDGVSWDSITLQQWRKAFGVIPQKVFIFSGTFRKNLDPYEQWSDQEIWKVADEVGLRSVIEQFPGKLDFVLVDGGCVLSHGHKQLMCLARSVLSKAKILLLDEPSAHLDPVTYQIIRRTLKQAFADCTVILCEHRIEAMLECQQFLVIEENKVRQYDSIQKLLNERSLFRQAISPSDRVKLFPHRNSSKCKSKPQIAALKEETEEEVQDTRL

| Structure (SMILES) | % Activation (ΔF508-CFTR [1]) [%] | EC50 (ΔF508-CFTR [1]) [µM] | % Activation (ΔF508-CFTR [2]) [%] | EC50 (ΔF508-CFTR [2]) [µM] |
| --- | --- | --- | --- | --- |
| Cc1nn(-c2ccc(OC(F)(F)F)cc2)c2nc(C(=O)NS(C)(=O)=O)cc(-c3ccc(N4CCOCC4)cc3)c12 [Compound 69, N-(methanesulfonyl)-3-methyl-4-[4-(morpholin-4-yl)phenyl]-1-[4-(trifluoromethoxy)phenyl]-1H-pyrazolo[3,4-b]pyridine-6-carboxamide] | 362.03 | 0.404 | 182.08 | 0.632 |
| Cc1nn(-c2cccc(F)c2)c2nc(C(=O)NS(C)(=O)=O)cc(-c3ccc(N4CCOCC4)cc3)c12 [Compound 67, 1-(3-fluorophenyl)-N-(methanesulfonyl)-3-methyl-4-[4-(morpholin-4-yl)phenyl]-1H-pyrazolo[3,4-b]pyridine-6-carboxamide] | 371.62 | 0.241 | 181.96 | 0.362 |
| COCCS(=O)(=O)NC(=O)c1cc(N2CCC(COC)CC2)c2c(C(C)C)nn(CC(C)C)c2n1 [Compound 265, N-(2-methoxyethanesulfonyl)-4-[4-(methoxymethyl)piperidin-1-yl]-1-(2-methylpropyl)-3-(propan-2-yl)-1H-pyrazolo[3,4-b]pyridine-6-carboxamide] | 427.8 | 2.14 | 240.8 | 3.33 |
| CC(C)c1nn(-c2ccc(F)cc2)c2nc(C(=O)NS(C)(=O)=O)cc(N3CCN(CC(F)(F)F)CC3)c12 [Compound 266, 1-(4-fluorophenyl)-N-(methanesulfonyl)-3-(propan-2-yl)-4-[4-(2,2,2-trifluoroethyl)piperazin-1-yl]-1H-pyrazolo[3,4-b]pyridine-6-carboxamide] | 328.87 | 0.231 | 161.5 | 0.332 |
| CCS(=O)(=O)NC(=O)c1cc(-c2ccc(N3CCOCC3)cc2)c2c(C)nn(-c3cc(C)cc(C)c3)c2n1 [Compound 115, 1-(3,5-dimethylphenyl)-N-(ethanesulfonyl)-3-methyl-4-[4-(morpholin-4-yl)phenyl]-1H-pyrazolo[3,4-b]pyridine-6-carboxamide] | 389.6 | 0.665 | 216.05 | 1.05 |
| CS(=O)(=O)NC(=O)c1cc(N2CCN(CC(F)(F)F)CC2)c2c(C3CCC3)nn(-c3ccccc3)c2n1 [Compound 329, 3-cyclobutyl-N-(methanesulfonyl)-1-phenyl-4-[4-(2,2,2-trifluoroethyl)piperazin-1-yl]-1H-pyrazolo[3,4-b]pyridine-6-carboxamide] | 318.4 | 0.777 | 163.85 | 0.158 |
| CCS(=O)(=O)NC(=O)c1cc(N2CCC(OC)CC2)c2c(C(C)C)nn(-c3cccc(C)c3)c2n1 [Compound 118, N-(ethanesulfonyl)-4-(4-methoxypiperidin-1-yl)-1-(3-methylphenyl)-3-(propan-2-yl)-1H-pyrazolo[3,4-b]pyridine-6-carboxamide] | 469 | 0.28 | 289.93 | 0.398 |
| COCC1CCN(c2cc(C(=O)NS(C)(=O)=O)nc3c2c(C2CCC2)nn3-c2ccnc(C)c2)CC1 [Compound 430, 3-cyclobutyl-N-(methanesulfonyl)-4-[4-(methoxymethyl)piperidin-1-yl]-1-(2-methylpyridin-4-yl)-1H-pyrazolo[3,4-b]pyridine-6-carboxamide] | 383.7 | 0.0899 | 170.05 | 0.231 |
| CCS(=O)(=O)NC(=O)c1cc(-c2cnc(N3CCOCC3)nc2)c2c(C(C)C)nn(-c3cccc(N(C)C)c3)c2n1 [Compound 62, 1-[3-(dimethylamino)phenyl]-N-(ethanesulfonyl)-4-[2-(morpholin-4-yl)pyrimidin-5-yl]-3-(propan-2-yl)-1H-pyrazolo[3,4-b]pyridine-6-carboxamide] | 631.2 | 0.532 | 350.85 | 0.596 |
| CC1(S(=O)(=O)NC(=O)c2cc(N3CCC(N4CCOCC4)CC3)c3c(C4CCC4)nn(-c4ccccc4)c3n2)CC1 [Compound 435, 3-cyclobutyl-N-(1-methylcyclopropane-1-sulfonyl)-4-[4-(morpholin-4-yl)piperidin-1-yl]-1-phenyl-1H-pyrazolo[3,4-b]pyridine-6-carboxamide] | 474.8 | 0.0828 | 269.9 | 0.136 |
| COC1CC(CN2CCC(c3cc(C(=O)NS(C)(=O)=O)nc4c3c(C3CCC3)nn4-c3ccc(F)cc3)CC2)C(OC)O1 (stereo not drawn) [Compound 602, 3-cyclobutyl-4-{1-[(2,5-dimethoxyoxolan-3-yl)methyl]piperidin-4-yl}-1-(4-fluorophenyl)-N-(methanesulfonyl)-1H-pyrazolo[3,4-b]pyridine-6-carboxamide] | 359.1 | 0.581 | 133.6 | 1.18 |
| O=C(NS(=O)(=O)N1CC(F)C1)c1cc(N2CCC(N3CCOCC3)CC2)c2c(C3CCC3)nn(-c3ccc(F)cc3)c2n1 [Compound 569, 3-cyclobutyl-N-(3-fluoroazetidine-1-sulfonyl)-1-(4-fluorophenyl)-4-[4-(morpholin-4-yl)piperidin-1-yl]-1H-pyrazolo[3,4-b]pyridine-6-carboxamide] | 436.13 | 0.0889 | 220.77 | 0.112 |
| COc1ccc(-c2cc(C(=O)NS(C)(=O)=O)nc3c2c(C)nn3-c2cccc(C)c2)cc1 [Compound 27, N-(methanesulfonyl)-4-(4-methoxyphenyl)-3-methyl-1-(3-methylphenyl)-1H-pyrazolo[3,4-b]pyridine-6-carboxamide] | 365.2 | 0.714 | 145.5 | 1.22 |
| CS(=O)(=O)NC(=O)c1cc(N2CC3(CCCC3)C2)c2c(C3CCC3)nn(-c3ccccc3)c2n1 [Compound 184, 4-(2-azaspiro[3.4]octan-2-yl)-3-cyclobutyl-N-(methanesulfonyl)-1-phenyl-1H-pyrazolo[3,4-b]pyridine-6-carboxamide] | 282.7 | 0.574 | 95.405 | 0.719 |
| COCCN(C)c1ccc(-c2cc(C(=O)NS(C)(=O)=O)nc3c2c(C(C)C)nn3-c2cccc(N3CCCC3)c2)cc1 [Compound 109, N-(methanesulfonyl)-4-{4-[(2-methoxyethyl)(methyl)amino]phenyl}-3-(propan-2-yl)-1-[3-(pyrrolidin-1-yl)phenyl]-1H-pyrazolo[3,4-b]pyridine-6-carboxamide] | 571.3 | 0.634 | 381.05 | 0.613 |
| CS(=O)(=O)NC(=O)c1cc(N2CCC3(CCO3)CC2)c2c(C3CCC3)nn(-c3ccccc3)c2n1 [Compound 159, 3-cyclobutyl-N-(methanesulfonyl)-4-(1-oxa-7-azaspiro[3.5]nonan-7-yl)-1-phenyl-1H-pyrazolo[3,4-b]pyridine-6-carboxamide] | 270.3 | 0.483 | 103.02 | 0.661 |
| CN(C)S(=O)(=O)NC(=O)c1cc(N2CCC(N3CCOCC3)CC2)c2c(C3CCC3)nn(-c3ccc(C(F)(F)F)cc3)c2n1 [Compound 500, 3-cyclobutyl-N-(dimethylsulfamoyl)-4-[4-(morpholin-4-yl)piperidin-1-yl]-1-[4-(trifluoromethyl)phenyl]-1H-pyrazolo[3,4-b]pyridine-6-carboxamide] | 330.05 | 0.0842 | 137.5 | 0.173 |
| Cc1nn(-c2ccccc2)c2nc(C(=O)NS(C)(=O)=O)cc(-c3ccc(N4CCC(N(C)C)C4)cc3)c12 (stereo not drawn) [Compound 100, 4-{4-[3-(dimethylamino)pyrrolidin-1-yl]phenyl}-N-(methanesulfonyl)-3-methyl-1-phenyl-1H-pyrazolo[3,4-b]pyridine-6-carboxamide] | 340.6 | 3.22 | 113 | 2.48 |
| COCCS(=O)(=O)NC(=O)c1cc(-c2ccc(N3CCOCC3)cc2)c2c(C(C)C)nn(C3CCOC3)c2n1 (stereo not drawn) [Compound 232, N-(2-methoxyethanesulfonyl)-4-[4-(morpholin-4-yl)phenyl]-1-(oxolan-3-yl)-3-(propan-2-yl)-1H-pyrazolo[3,4-b]pyridine-6-carboxamide] | 199.75 | 1.73 | 71.64 | 1.68 |
| COCCS(=O)(=O)NC(=O)c1cc(N2CCC(N3CCOCC3)CC2)c2c(C3CCC3)nn(C3CCCCC3)c2n1 [Compound 419, 3-cyclobutyl-1-cyclohexyl-N-(2-methoxyethanesulfonyl)-4-[4-(morpholin-4-yl)piperidin-1-yl]-1H-pyrazolo[3,4-b]pyridine-6-carboxamide] | 505.65 | 0.277 | 293 | 0.448 |
| CS(=O)(=O)NC(=O)c1cc(N2CCC3(C2)CC3(F)F)c2c(C3CCC3)nn(-c3ccccc3)c2n1 (stereo not drawn) [Compound 202, 3-cyclobutyl-4-(1,1-difluoro-5-azaspiro[2.4]heptan-5-yl)-N-(methanesulfonyl)-1-phenyl-1H-pyrazolo[3,4-b]pyridine-6-carboxamide] | 299.4 | 0.255 | 147.23 | 0.595 |
